Measurements published in patent US11572590B2, “Methods for evaluating tumor cell spheroids using 3D microfluidic cell culture device” (Dana-Farber Cancer Institute, Inc., priority 2017, dated 2023).
Where two headings read alike, the source gives them in different places.

Experiments:
Test in all cases: SelectScreen Kinase Profiling, single point inhibition and IC50 for off-target kinases
Format in all cases: biochemical
off-target kinases [1] = target: off-target kinases (Homo sapiens, UniProt P42336); conditions: PIK3CA/PIK3R1 (p110 alpha/p85 alpha); Cmpd1 1000 μM; ATP Km app; Adapta
off-target kinases [2] = target: off-target kinases (Homo sapiens, UniProt P51957); conditions: NEK4, ZLYTE, ATP Km app
off-target kinases [3] = target: T1, off-target kinases (Homo sapiens, UniProt Q13976); conditions: PRKG1, ZLYTE, ATP Km app
T1 sequence (Q13976 1-671): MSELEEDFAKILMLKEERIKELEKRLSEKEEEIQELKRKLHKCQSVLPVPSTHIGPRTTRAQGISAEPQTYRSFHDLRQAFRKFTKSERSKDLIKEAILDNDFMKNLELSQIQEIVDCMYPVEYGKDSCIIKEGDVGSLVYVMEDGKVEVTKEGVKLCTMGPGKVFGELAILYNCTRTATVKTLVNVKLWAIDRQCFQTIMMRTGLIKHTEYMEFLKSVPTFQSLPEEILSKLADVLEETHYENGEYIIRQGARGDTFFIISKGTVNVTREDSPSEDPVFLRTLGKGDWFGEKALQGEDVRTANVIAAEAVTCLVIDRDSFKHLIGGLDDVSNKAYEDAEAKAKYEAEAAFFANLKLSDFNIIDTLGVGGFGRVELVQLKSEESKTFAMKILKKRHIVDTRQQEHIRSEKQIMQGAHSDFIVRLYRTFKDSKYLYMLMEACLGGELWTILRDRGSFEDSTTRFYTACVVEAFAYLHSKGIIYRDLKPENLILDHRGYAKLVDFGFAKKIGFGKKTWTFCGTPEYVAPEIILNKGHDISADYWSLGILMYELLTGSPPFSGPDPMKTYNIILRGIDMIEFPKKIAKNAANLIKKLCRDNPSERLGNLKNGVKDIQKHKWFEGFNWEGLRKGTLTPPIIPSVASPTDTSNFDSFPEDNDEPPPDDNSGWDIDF

off-target kinases [4] = target: T2, off-target kinases (Homo sapiens, UniProt Q9H093); conditions: NUAK2, LanthaScreen Binding
T2 sequence (Q9H093 1-628): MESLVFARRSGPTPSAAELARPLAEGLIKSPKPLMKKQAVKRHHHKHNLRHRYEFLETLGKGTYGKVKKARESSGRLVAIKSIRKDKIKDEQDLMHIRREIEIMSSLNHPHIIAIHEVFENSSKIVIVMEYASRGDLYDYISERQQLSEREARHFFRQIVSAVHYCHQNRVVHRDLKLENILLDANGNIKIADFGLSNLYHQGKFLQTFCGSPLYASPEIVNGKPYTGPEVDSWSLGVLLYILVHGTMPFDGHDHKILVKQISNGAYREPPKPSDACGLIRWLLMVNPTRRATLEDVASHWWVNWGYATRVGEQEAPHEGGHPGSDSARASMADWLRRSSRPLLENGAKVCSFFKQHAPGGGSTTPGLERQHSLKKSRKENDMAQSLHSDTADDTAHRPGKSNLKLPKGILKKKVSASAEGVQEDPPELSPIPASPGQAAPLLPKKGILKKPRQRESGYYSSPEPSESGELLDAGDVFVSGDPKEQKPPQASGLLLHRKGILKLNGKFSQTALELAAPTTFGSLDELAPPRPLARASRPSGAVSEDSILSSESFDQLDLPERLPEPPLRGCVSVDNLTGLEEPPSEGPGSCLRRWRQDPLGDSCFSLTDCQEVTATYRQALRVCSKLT

off-target kinases [5] = target: off-target kinases (Homo sapiens, UniProt Q9H422); conditions: HIPK3 (YAK1), ZLYTE, ATP Km app
Sequence of off-target kinases (Homo sapiens, UniProt Q9H422) (Q9H422 whole entry): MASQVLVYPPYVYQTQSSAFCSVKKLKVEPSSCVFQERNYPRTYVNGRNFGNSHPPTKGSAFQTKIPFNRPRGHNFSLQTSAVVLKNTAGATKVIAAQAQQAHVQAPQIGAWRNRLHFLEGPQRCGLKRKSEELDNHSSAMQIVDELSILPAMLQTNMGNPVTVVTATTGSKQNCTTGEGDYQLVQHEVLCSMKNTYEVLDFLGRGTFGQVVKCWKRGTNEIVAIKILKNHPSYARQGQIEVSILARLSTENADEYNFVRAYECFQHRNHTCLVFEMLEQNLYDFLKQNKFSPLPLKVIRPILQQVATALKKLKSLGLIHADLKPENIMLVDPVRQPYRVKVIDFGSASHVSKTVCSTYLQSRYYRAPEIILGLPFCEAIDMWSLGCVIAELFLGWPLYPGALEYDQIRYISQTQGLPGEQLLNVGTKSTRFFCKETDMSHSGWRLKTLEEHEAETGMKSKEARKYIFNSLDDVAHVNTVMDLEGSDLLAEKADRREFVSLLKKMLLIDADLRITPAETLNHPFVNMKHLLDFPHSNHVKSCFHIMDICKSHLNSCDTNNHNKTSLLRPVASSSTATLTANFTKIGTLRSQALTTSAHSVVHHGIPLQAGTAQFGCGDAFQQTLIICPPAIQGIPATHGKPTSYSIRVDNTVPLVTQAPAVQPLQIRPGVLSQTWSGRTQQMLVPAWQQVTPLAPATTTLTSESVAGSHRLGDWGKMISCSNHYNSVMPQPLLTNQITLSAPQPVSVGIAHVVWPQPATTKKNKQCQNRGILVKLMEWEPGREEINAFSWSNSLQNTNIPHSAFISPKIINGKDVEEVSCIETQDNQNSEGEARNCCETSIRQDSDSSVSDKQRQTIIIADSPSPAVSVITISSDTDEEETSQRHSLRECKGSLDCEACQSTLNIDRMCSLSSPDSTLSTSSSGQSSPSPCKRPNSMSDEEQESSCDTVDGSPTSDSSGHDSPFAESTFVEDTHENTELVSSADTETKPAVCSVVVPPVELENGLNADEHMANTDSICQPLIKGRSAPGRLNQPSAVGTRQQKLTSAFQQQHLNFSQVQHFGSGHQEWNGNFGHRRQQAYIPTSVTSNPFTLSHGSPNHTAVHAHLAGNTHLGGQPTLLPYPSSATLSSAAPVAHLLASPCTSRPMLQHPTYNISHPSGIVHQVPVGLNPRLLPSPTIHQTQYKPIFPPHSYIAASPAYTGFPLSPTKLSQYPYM

Sequence of off-target kinases (Homo sapiens, UniProt P42336) (P42336 whole entry): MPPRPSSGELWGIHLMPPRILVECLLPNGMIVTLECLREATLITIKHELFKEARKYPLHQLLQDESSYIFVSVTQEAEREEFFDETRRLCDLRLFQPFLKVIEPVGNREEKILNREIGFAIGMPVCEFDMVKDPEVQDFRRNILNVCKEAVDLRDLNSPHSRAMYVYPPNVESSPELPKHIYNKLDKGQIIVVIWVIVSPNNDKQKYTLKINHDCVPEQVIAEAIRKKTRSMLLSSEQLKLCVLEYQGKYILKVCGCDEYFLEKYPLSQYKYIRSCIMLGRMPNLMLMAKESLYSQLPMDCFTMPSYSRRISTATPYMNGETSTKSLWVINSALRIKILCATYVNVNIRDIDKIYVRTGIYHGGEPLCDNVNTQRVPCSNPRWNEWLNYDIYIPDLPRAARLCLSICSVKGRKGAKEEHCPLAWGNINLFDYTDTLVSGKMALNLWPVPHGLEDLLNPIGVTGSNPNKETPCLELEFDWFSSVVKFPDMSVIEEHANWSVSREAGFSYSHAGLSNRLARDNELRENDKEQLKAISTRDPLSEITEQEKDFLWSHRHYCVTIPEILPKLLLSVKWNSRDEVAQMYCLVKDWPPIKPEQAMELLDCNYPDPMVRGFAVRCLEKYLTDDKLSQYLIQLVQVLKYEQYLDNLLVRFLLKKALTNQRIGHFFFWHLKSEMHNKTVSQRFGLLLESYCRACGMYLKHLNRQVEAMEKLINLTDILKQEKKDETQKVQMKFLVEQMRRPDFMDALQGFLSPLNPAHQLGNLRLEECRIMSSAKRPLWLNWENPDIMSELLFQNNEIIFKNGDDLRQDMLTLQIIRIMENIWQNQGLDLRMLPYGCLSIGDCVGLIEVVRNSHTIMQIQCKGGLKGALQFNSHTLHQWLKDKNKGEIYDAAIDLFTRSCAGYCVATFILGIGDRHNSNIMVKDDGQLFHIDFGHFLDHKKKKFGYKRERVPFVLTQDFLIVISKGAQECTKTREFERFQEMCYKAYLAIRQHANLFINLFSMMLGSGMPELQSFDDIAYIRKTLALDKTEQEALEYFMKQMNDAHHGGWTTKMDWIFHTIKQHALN
Sequence of off-target kinases (Homo sapiens, UniProt P51957) (P51957 whole entry): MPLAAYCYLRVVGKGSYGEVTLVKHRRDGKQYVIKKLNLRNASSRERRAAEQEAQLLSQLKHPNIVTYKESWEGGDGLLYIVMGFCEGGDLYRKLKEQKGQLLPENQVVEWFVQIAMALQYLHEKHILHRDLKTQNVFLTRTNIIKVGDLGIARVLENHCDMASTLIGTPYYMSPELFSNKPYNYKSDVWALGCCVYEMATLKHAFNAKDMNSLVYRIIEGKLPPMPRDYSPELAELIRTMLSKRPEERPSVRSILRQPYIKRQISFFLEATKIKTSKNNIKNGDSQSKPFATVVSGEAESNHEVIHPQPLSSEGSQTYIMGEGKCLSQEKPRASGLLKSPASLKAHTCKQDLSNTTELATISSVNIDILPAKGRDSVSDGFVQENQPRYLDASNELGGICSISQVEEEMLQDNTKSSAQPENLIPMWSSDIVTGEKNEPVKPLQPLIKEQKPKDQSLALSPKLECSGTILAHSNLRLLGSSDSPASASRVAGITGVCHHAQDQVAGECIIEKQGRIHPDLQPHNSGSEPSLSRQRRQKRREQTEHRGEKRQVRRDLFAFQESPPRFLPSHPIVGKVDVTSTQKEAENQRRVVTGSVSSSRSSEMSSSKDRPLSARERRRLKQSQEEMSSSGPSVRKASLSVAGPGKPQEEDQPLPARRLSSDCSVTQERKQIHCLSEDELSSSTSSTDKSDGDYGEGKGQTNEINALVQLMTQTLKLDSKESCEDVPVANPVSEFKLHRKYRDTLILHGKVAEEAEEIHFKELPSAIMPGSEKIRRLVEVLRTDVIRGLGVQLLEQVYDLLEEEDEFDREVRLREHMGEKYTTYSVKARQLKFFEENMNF

**Q.** What does the source list for `N#Cc1cc(-c2ncnc(Nc3ccc(N4CCN(C5COC5)CC4)cc3)n2)ccc1OC1CCOCC1` [Compound 1, 5-(4-((4-(4-(oxetan-3-yl)piperazin-1-yl)phenyl)amino)-1,3,5-triazin-2-yl)-2-((tetrahydro-2H-pyran-4-yl)oxy)benzonitrile]?
**A.** % Inhibition 1 (off-target kinases [1]): −5%; % Inhibition 2 (off-target kinases [1]): −4%; % Inhibition Avg (off-target kinases [1]): −5%; inhibition (off-target kinases [2]; read-out: % Inhibition 1): 23%; inhibition (off-target kinases [2]; read-out: % Inhibition 2): 23%; inhibition (off-target kinases [2]; read-out: % Inhibition Avg): 23%; inhibition (off-target kinases [3]; read-out: % Inhibition 1): 2%; inhibition (off-target kinases [3]; read-out: % Inhibition 2): 5%; inhibition (off-target kinases [3]; read-out: % Inhibition Avg): 3%; inhibition (off-target kinases [4]; read-out: % Inhibition 1): 54%; inhibition (off-target kinases [4]; read-out: % Inhibition 2): 52%; inhibition (off-target kinases [4]; read-out: % Inhibition Avg): 53%; inhibition (off-target kinases [5]; read-out: % Inhibition 1): 15%; inhibition (off-target kinases [5]; read-out: % Inhibition 2): 11%; inhibition (off-target kinases [5]; read-out: % Inhibition Avg): 13%
